According to patent US4318916A, “Antibiotic PS-5 and derivatives having β-lactamase inhibitory activity and production thereof” (Sanraku-Ocean Co., Ltd., priority 1977, dated 1982):

Tests used:
[1] = test system: Comamonas terrigena B-996; experiment: Disc bio-assay of antimicrobial activity, cephaloridine equivalent units; type: cell-based; conditions: Comamonas-cephaloridine units per mg of the final purified preparation
Experimental: The overnight culture of Comamonas terrigena B-996 on a nutrient agar slant was suspended in nutrient broth so as to give an optical cell density of 0.040 at 610 nm.
The seed suspension was added in a 1% amount to a molten agar medium containing 0.8% Kyokuto Nutrient Broth Powder (Kyokuto Pharmaceutical Industries Co.) and 1.0% Bacto-Agar (Difco Laboratories). Seven milliliters of the seeded molten agar medium were distributed in a Petri dish (9 cm in diameter) and solidified). This is defined as a Comamonas assay plate.
An 8 mm pulp disc was usually soaked with a sample solution to be assayed, left on a clean sheet of filter paper for a sufficient time to remove the excess solution and then transferred onto an assay plate. After incubation at 35° C. for 20 hours, the diameter of the observed inhibition zone was measured and compared with standard solutions of cephaloridine. The antimicrobial activity of the antibiotic PS-5 and related compounds is expressed as cephaloridine equivalent units/ml.
As well known to those skilled in the art, the assay standard curve varies to some extent, depending on the species of the test microorganisms. […]

[2] = test system: Staphylococcus aureus Smith; experiment: In vivo activity of trityl ester in infected mice
Experimental: The in vivo activity of the tritylation product of the antibiotic PS-5 was measured in mice intraperitoneally infected with 5×10^3 cells/mouse of Staphylococcus aureus Smith. The trityl ester of the antibiotic PS-5 was subcutaneously injected just after infection.

[3] = pH and heat stability of antibiotic PS-5 in aqueous solution; type: physicochemical; conditions: phosphate buffer, yellowish brown powder of Example 5
Experimental: Phosphate buffer solutions of the indicated pH's were made by adjusting M/15 dipotassium phosphate to a desired pH with 5 N NaOH or 5 N phosphoric acid. To 1 milliliter of the antibiotic PS-5 solution, 1 milliliter of the phosphate buffer was added and, if necessary, the pH value was readjusted to the initial value. The antibiotic PS-5 solutions with varied pH's were kept at 60° C. for 30 minutes in a water bath, cooled in running water and neutralized to pH 7.0 with a small amount of 5 N NaOH or 5 N phosphoric acid. The control tube containing the antibiotic PS-5 solution of pH 7.0 was put in an ice bath for 30 minutes. The remaining antimicrobial activity was determined as described above, utilizing Comamonas terrigena B-996 as the assay microorganism. The results shown in the following table were calculated as percent of the control: […]

Proteus vulgaris P-5 [4] = experiment: Filter paper strip synergism test; type: cell-based; conditions: Proteus vulgaris P-5 (beta-lactamase producer); crossed filter paper strips, 18 hours at 35° C.
Experimental: On an assay plate of nutrient agar seeded by a beta-lactam-resistant strain of Proteus vulgaris P-5 (beta-lactamase producer), two filter paper strips containing penicillin G or cephaloridine and two strips containing antibiotic PS-5 were applied to form a square where two strips of the […] antibiotic were contacted at one corner. The antimicrobial activity was read after incubation for 18 hours at 35° C. When suitable concentrations of penicillin G or cephaloridine and antibiotic PS-5 were chosen, the inhibition area was observed only at the corners where both antibiotic PS-5 and penicillin G or cephaloridine were present, but not at the corners where antibiotic PS-5, penicillin G or cephaloridine was solely present. […] That is, when two kinds of compounds were combined at concentrations that were low enough not to give an inhibition zone with a component alone, the large inhibition thus appearing with the combination was due to synergism.

Proteus sp. P-22 = experiment: Potentiation disc assay with penicillin G (Table 9); type: cell-based; conditions: for Inhibition zone With pen. G: 50 μg/ml penicillin G in agar
Experimental: (§1) (A) Ten milliliters of molten nutrient agar containing 50 μg/ml of penicillin G or cephaloridine, 0.8% of Kyokuto Nutrient Broth Powder and 1.0% of Difco Bacto-Agar (pH 7.0) were seeded with the beta-lactam-resistant, beta-lactamase-producing microorganisms indicated in Tables 9 and 10, and poured in a 9-cm Petri dish to provide the bio-assay agar plate. On this assay plate, 8-mm pulp discs containing 25 μl each of antibiotic PS-5 solutions at the indicated concentrations were placed and incubated at 35° C. for 18 hours before reading the inhibition zones. The control assay plate was similarly prepared without penicillin G nor cephaloridine. As reference antibiotics, penicillin G, ampicillin, oxacillin and cefazolin were disc-assayed under the same conditions.

Enterobacter sp. E-8 = experiment: as above; type: cell-based; conditions: for Inhibition zone With pen. G: 50 μg/ml penicillin G in agar
Experimental: as §1

Serratia marcescens S-18 = experiment: as above; type: cell-based; conditions: for Inhibition zone With pen. G: 50 μg/ml penicillin G in agar
Experimental: as §1

Proteus vulgaris P-5 [5] = experiment: as above; type: cell-based; conditions: for Inhibition zone With pen. G: 50 μg/ml penicillin G in agar
Experimental: as §1

Citrobacter freundii E-9 = experiment: as above; type: cell-based; conditions: for Inhibition zone With pen. G: 50 μg/ml penicillin G in agar
Experimental: as §1

CCC1C(=O)N2C(C(=O)OC(c3ccccc3)(c3ccccc3)c3ccccc3)=C(SCCNC(C)=O)CC12 (single isomer, unassigned) [Trityl PS-5]
Specific activity [1]: 10,800 CCU/mg
50% curative dose ([2]; male ddy mice, Staphylococcus aureus Smith, subcutaneous, in Comamonas-cephaloridine units): 27,540 CCU/kg
Therapeutic effect in infected mice ([2]; mice infected with a pathogenic Gram-positive bacteria): marked therapeutic effect
ED50 ([2]; sc, male ddy mice infected i.p. with 5×10^3 cells/mouse Staphylococcus aureus Smith, subcutaneously injected just after infection, read-out: 50% curative dose): 2.55 mg/kg

CCC1C(=O)N2C(C(=O)O)=C(SCCNC(C)=O)CC12 (single isomer, unassigned) [Antibiotic PS-5]
remaining at 0.5 h ([3]; pH 3, pH 3.0, 60° C. for 30 minutes, percent of control): 0%
remaining at 0.5 h ([3]; pH 4, pH 4.0, 60° C. for 30 minutes): 0%
remaining at 0.5 h ([3]; pH 5, pH 5.0, 60° C. for 30 minutes): 9%
remaining at 0.5 h ([3]; pH 6, pH 6.0, 60° C. for 30 minutes): 79%
remaining at 0.5 h ([3]; pH 7, pH 7.0, 60° C. for 30 minutes): 76.5%
remaining at 0.5 h ([3]; pH 8, pH 8.0, 60° C. for 30 minutes): 88.5%
remaining at 0.5 h ([3]; pH 9, pH 9.0, 60° C. for 30 minutes): 82%
Synergism with penicillin G or cephaloridine (Proteus vulgaris P-5 [4]): synergism between the antibiotic PS-5 and penicillin G or cephaloridine
zone of inhibition at 79.5 µg/mL (Proteus sp. P-22; 18 h, PS-5 79.5 μg/ml, read-out: Inhibition zone Without pen. G): 0 mm
zone of inhibition at 100 µg/mL (Proteus sp. P-22; 18 h, PS-5 100 μg/ml, read-out: Inhibition zone Without pen. G): 0 mm
zone of inhibition at 159 µg/mL (Proteus sp. P-22; 18 h, PS-5 159 μg/ml, read-out: Inhibition zone Without pen. G): 11.7 mm
zone of inhibition at 318 µg/mL (Proteus sp. P-22; 18 h, PS-5 318 μg/ml, read-out: Inhibition zone Without pen. G): 13.6 mm
Inhibition zone With pen. G (Proteus sp. P-22; PS-5 79.5 μg/ml): 12.8 mm
Inhibition zone With pen. G (Proteus sp. P-22; PS-5 100 μg/ml): 13.8 mm
Inhibition zone With pen. G (Proteus sp. P-22; PS-5 159 μg/ml): 18.2 mm
Inhibition zone With pen. G (Proteus sp. P-22; PS-5 318 μg/ml): 21.4 mm
Inhibition zone With pen. G (Enterobacter sp. E-8; PS-5 79.5 μg/ml): 11.0 mm
Inhibition zone With pen. G (Enterobacter sp. E-8; PS-5 100 μg/ml): 13.8 mm
Inhibition zone With pen. G (Enterobacter sp. E-8; PS-5 159 μg/ml): 17.5 mm
Inhibition zone With pen. G (Enterobacter sp. E-8; PS-5 318 μg/ml): 20.0 mm
zone of inhibition at 79.5 µg/mL (Enterobacter sp. E-8; SP.E8, 18 h, PS-5 79.5 μg/ml, read-out: Inhibition zone Without pen. G): 11 mm
zone of inhibition at 100 µg/mL (Enterobacter sp. E-8; SP.E8, 18 h, PS-5 100 μg/ml, read-out: Inhibition zone Without pen. G): 13.8 mm
zone of inhibition at 159 µg/mL (Enterobacter sp. E-8; SP.E8, 18 h, PS-5 159 μg/ml, read-out: Inhibition zone Without pen. G): 17.2 mm
zone of inhibition at 318 µg/mL (Enterobacter sp. E-8; SP.E8, 18 h, PS-5 318 μg/ml, read-out: Inhibition zone Without pen. G): 20.1 mm
Inhibition zone With pen. G (Serratia marcescens S-18; PS-5 79.5 μg/ml): 13.8 mm
Inhibition zone With pen. G (Serratia marcescens S-18; PS-5 100 μg/ml): 16.1 mm
Inhibition zone With pen. G (Serratia marcescens S-18; PS-5 159 μg/ml): 22.0 mm
Inhibition zone With pen. G (Serratia marcescens S-18; PS-5 318 μg/ml): 22.1 mm
zone of inhibition at 79.5 µg/mL (Serratia marcescens S-18; S18, 18 h, PS-5 79.5 μg/ml, read-out: Inhibition zone Without pen. G): 0 mm
zone of inhibition at 100 µg/mL (Serratia marcescens S-18; S18, 18 h, PS-5 100 μg/ml, read-out: Inhibition zone Without pen. G): 13 mm
zone of inhibition at 159 µg/mL (Serratia marcescens S-18; S18, 18 h, PS-5 159 μg/ml, read-out: Inhibition zone Without pen. G): 17.8 mm
zone of inhibition at 318 µg/mL (Serratia marcescens S-18; S18, 18 h, PS-5 318 μg/ml, read-out: Inhibition zone Without pen. G): 21.3 mm
zone of inhibition at 79.5 µg/mL (Proteus vulgaris P-5 [5]; P5, 18 h, PS-5 79.5 μg/ml, read-out: Inhibition zone Without pen. G): 0 mm
zone of inhibition at 100 µg/mL (Proteus vulgaris P-5 [5]; P5, 18 h, PS-5 100 μg/ml, read-out: Inhibition zone Without pen. G): 10.3 mm
zone of inhibition at 159 µg/mL (Proteus vulgaris P-5 [5]; P5, 18 h, PS-5 159 μg/ml, read-out: Inhibition zone Without pen. G): 14 mm
zone of inhibition at 318 µg/mL (Proteus vulgaris P-5 [5]; P5, 18 h, PS-5 318 μg/ml, read-out: Inhibition zone Without pen. G): 16 mm
Inhibition zone With pen. G (Proteus vulgaris P-5 [5]; PS-5 79.5 μg/ml): 18.3 mm
Inhibition zone With pen. G (Proteus vulgaris P-5 [5]; PS-5 100 μg/ml): 22.2 mm
Inhibition zone With pen. G (Proteus vulgaris P-5 [5]; PS-5 159 μg/ml): 24.5 mm
Inhibition zone With pen. G (Proteus vulgaris P-5 [5]; PS-5 318 μg/ml): 26.6 mm
zone of inhibition at 79.5 µg/mL (Citrobacter freundii E-9; E9, 18 h, PS-5 79.5 μg/ml, read-out: Inhibition zone Without pen. G): 10.4 mm
zone of inhibition at 100 µg/mL (Citrobacter freundii E-9; E9, 18 h, PS-5 100 μg/ml, read-out: Inhibition zone Without pen. G): 13.2 mm
zone of inhibition at 159 µg/mL (Citrobacter freundii E-9; E9, 18 h, PS-5 159 μg/ml, read-out: Inhibition zone Without pen. G): 17.2 mm
zone of inhibition at 318 µg/mL (Citrobacter freundii E-9; E9, 18 h, PS-5 318 μg/ml, read-out: Inhibition zone Without pen. G): 20.8 mm
Inhibition zone With pen. G (Citrobacter freundii E-9; PS-5 79.5 μg/ml): 13.1 mm
Inhibition zone With pen. G (Citrobacter freundii E-9; PS-5 100 μg/ml): 15.2 mm
Inhibition zone With pen. G (Citrobacter freundii E-9; PS-5 159 μg/ml): 19.2 mm
Inhibition zone With pen. G (Citrobacter freundii E-9; PS-5 318 μg/ml): 23.0 mm
